Assays:
[1] = tested on: [^3H]NE uptake in spinal cord synaptosomes; assay: Inhibition of [3H]NE uptake in spinal cord synaptosomes; format: biochemical, guinea pig; details: for IC50: spinal cord synaptosomes, 95% confidence interval in brackets
Experimental: Adult female Hartley strain guinea pigs (440-550 g) were decapitated and the spinal cords taken out. A crude synaptosomal (P2) fraction was prepared as described previously (Lonart and Johnson 1995; Li 2000). Briefly, the tissue was minced and homogenized in 10 ml of ice-cold 0.32 M sucrose solution (pH7.4) with a Thomas B075 homogenizor, clearance 0.13-0.18 mm. The homogenate was centrifuged for 10 min at 1,200×g in a Megafuge centrifuge at 4° C. The resulting supernatant was then centrifuged at 20,000×g for 20 min in JA-17 rotor of a Beckman J2-21 centrifuge at 4° C. and the supernatant discarded. The pellet (P2) was gently resuspended in aerated (100% O2) ice-cold buffer containing (in mM):HEPES 20, NaCl 140, KCl 5, NaHCO3 5, MgCl2 1, Na2HPO4 1.2, CaCl2 1.2 and glucose 10, pH 7.4, and centrifuge at 3,000×g for 12 min in a Megafuge at 4° C. Pour out the supernatant. Gently resuspend synaptosome in 10 ml buffer with the aid of a Dounce homogenizor just before using. Protein concentration was determined by the method of Bradford (1976) at 595 nm using bovine serum albumin as a standard in a Spectra Max plus machine (Molecular Device Co. Sunnyvale, Calif.)
Add buffer 0.6 ml in tubes, synaptosome solution 0.2 ml (about 100 μg), then varying concentration of drug 0.1 ml (each concentration performed in triplicate), put in water bath for pre-incubation for 10 min at 37° C. The uptake was initiated by the addition of [^3H]NE (100 nM) or [^3H]5-HT (50 nM) 0.1 ml, continued to incubate for 6 min and terminated by a rapid cooling of sample tubes in ice-cold water for 3 min. The synaptosome were then collected using a Harvest machine with GF/B filter, washed for 3 times with ice-cold 150 mM Tris HCl buffer (pH7.4) 2 ml. After drying, put filter in scintillation liquid vials then add scintillation liquid 6 ml. Filter-bound radioactivity was counted by liquid scintillation counter (Beckman LS6001). The difference in [^3H]NE or [^3H]5-HT accumulation at 37° C. and 0° C. was taken as a measure of active uptake. […]

[2] = known value (Szeto et al., 1998); cited from earlier work
[3] = tested on: 5-HT uptake in spinal cord synaptosomes; assay: Inhibition of [3H]5-HT uptake in spinal cord synaptosomes; format: biochemical, guinea pig; details: data not shown
Experimental: Adult female Hartley strain guinea pigs (440-550 g) were decapitated and the spinal cords taken out. A crude synaptosomal (P2) fraction was prepared as described previously (Lonart and Johnson 1995; Li 2000). Briefly, the tissue was minced and homogenized in 10 ml of ice-cold 0.32 M sucrose solution (pH7.4) with a Thomas B075 homogenizor, clearance 0.13-0.18 mm. The homogenate was centrifuged for 10 min at 1,200×g in a Megafuge centrifuge at 4° C. The resulting supernatant was then centrifuged at 20,000×g for 20 min in JA-17 rotor of a Beckman J2-21 centrifuge at 4° C. and the supernatant discarded. The pellet (P2) was gently resuspended in aerated (100% O2) ice-cold buffer containing (in mM):HEPES 20, NaCl 140, KCl 5, NaHCO3 5, MgCl2 1, Na2HPO4 1.2, CaCl2 1.2 and glucose 10, pH 7.4, and centrifuge at 3,000×g for 12 min in a Megafuge at 4° C. Pour out the supernatant. […] Protein concentration was determined by the method of Bradford (1976) at 595 nm using bovine serum albumin as a standard in a Spectra Max plus machine (Molecular Device Co. Sunnyvale, Calif.)
Add buffer 0.6 ml in tubes, synaptosome solution 0.2 ml (about 100 μg), then varying concentration of drug 0.1 ml (each concentration performed in triplicate), put in water bath for pre-incubation for 10 min at 37° C. […] Filter-bound radioactivity was counted by liquid scintillation counter (Beckman LS6001). […]

[4] = tested on: rats (F344 strain); assay: Myocardial stunning during myocardial ischemia and reperfusion in rats; format: in vivo, rat
Experimental: In the [Dmt^1]DALDA group, [Dmt^1]DALDA was administered as a 10 nmol bolus, followed by 10 nmol/h continuous infusion. […] The control group received the same volume of saline as a bolus and continuous infusion.
The left anterior descending artery was occluded by applying tension to the sling through a polyethylene 10 tubing and clamping. Successful occlusion was confirmed by typical electrocardiographic changes and wall motion abnormality on echocardiogram. After 10 min of myocardial ischemia, the sling was released to reperfuse the left anterior descending artery. Time to recovery of left ventricular function was defined as the duration from the reperfusion to recovery of fractional shortening above 90% of baseline. Duration of reperfusion arrhythmia was defined as the duration of time to the last three consecutive premature ventricular contractions (salvo) after reperfusion. All procedures were performed in a blinded manner, with the groups assigned letters and their identities unknown to the operators. Likewise, the two independent investigators analyzing the data were blind to the treatment assignments.
All procedures and care of animals were in accordance with guidelines approved by the Institution for the Care and Use of Animals at Weill Medical College of Cornell University. Following anesthesia with 0.2 mg of ketamine and 1 mg xylazine given intraperitoneally, tracheostomy with blunt dissection of the neck and intubation with polyethylene tubing 240 was performed. Mechanical ventilation was started with room air at 90 respirations per min. The internal jugular vein was surgically exposed and a polyethylene tubing was inserted for drug administration. Left thoracotomy was performed through fifth intercostal space to expose the heart. After removal of the pericardium, a 6.0 Nylon sling was placed around the proximal left anterior descending artery just below the level of the left atrial appendage, to be used for occlusion of the coronary artery. Continuous echocardiogram was obtained by inserting a 10 French intracardiac probe into the esophagus (Acuson-Sequoia C256) and a two-dimensional echocardiogram was recorded continuously, with 10 MHz echo signals throughout the procedure. Electrocardiographic monitoring from a standard lead II (AC AMP 700) was digitally recorded throughout the procedure.
M-mode recordings were obtained for the analysis of wall motion and left ventricular systolic function. Left ventricular end diastolic and end systolic dimensions were measured at the level of papillary muscle. Fractional shortening as a measure of the global left ventricular function was calculated as the difference between left ventricular end diastolic and end systolic dimensions divided by end diastolic dimension×100. Systolic wall thickening of the anterior wall in percent, as a measure of the ischemic regional wall motion, was calculated as the difference between left ventricular end diastolic and end systolic wall thickness divided by end diastolic wall thickness×100.
Echocardiographic and electrocardiographic data are presented as mean value±SD. ANOVA was used to compare among the groups. A p-value<0.05 was considered significant.

[5] = tested on: awake sheep; assay: Blood pressure in sheep after intravenous administration; format: in vivo
Text: Even a brief period of increased blood pressure may be a risk factor in patients with hypertension, compromised myocardial function (such as after a myocardial infarction) or patients who are at risk for strokes. The response is short-lasting because the receptor desensitizes rapidly. We can take advantage of this rapid desensitization and eliminate the blood pressure response by administering the drug as a slow intravenous infusion rather than as a rapid bolus injection.
[…] […] Thus the increase in blood pressure can be avoided by using a slow intravenous infusion of [Dmt^1]DALDA.

[6] = Five min. after reperfusion, listed as morphine

NCCCC[C@H](NC(=O)[C@H](Cc1ccccc1)NC(=O)[C@@H](CCCN=C(N)N)NC(=O)[C@@H](N)Cc1ccc(O)cc1)C(N)=O [DALDA, H-Tyr-D-Arg-Phe-Lys-NH2]
IC50 [1]: 54 µM | elimination half-life [2]: ~1.5 h | effect on 5-HT uptake [3]: Neither DALDA nor [Dmt^1]DALDA had any effect

CN1CC[C@]23c4c5ccc(O)c4O[C@H]2[C@@H](O)C=C[C@H]3[C@H]1C5 [Morphine, morphine, reference compound]
Ejection fraction ([4]; After ligation): 31.3 ± 4.2% | Fractional shortening ([4]; After ligation): 21.0 ± 3.9% | Systolic wall thickening ([4]; After ligation): 7.8 ± 6.5% | Ejection fraction ([4]; Baseline): 64.6 ± 6.0% | Fractional shortening ([4]; Baseline): 46.5 ± 3.6% | Systolic wall thickening ([4]; Baseline): 47.7 ± 4.5% | Ejection fraction ([4]; Five min. after reperfusion): 39.5 ± 11.1% | Fractional shortening ([4]; Five min. after reperfusion): 39.1 ± 6.4% | Systolic wall thickening ([4]; Five min. after reperfusion): 33.7 ± 7.5% | Fractional shortening [4, 6]: 39.1±6.4% | Systolic wall thickening [4, 6]: 33.7±7.5% | Fractional shortening ([4]; Ten min. after reperfusion): 45.3 ± 6.2% | Systolic wall thickening ([4]; Ten min. after reperfusion): 42.2 ± 5.8% | Time to recovery of left ventricular function ([4]; from reperfusion to fractional shortening above 90% of baseline, [Dmt1]DALDA 10 nmol + 10 nmol/h, morphine 100 nmol + 100 nmol/h iv): 6.0 ± 2.5 min | duration of reperfusion arrhythmia ([4]; time to last salvo after reperfusion): 5.8 ± 3.9 min

Cc1cc(O)cc(C)c1C[C@H](N)C(=O)N[C@H](CCCNC(=N)N)C(=O)N[C@@H](Cc1ccccc1)C(=O)N[C@@H](CCCCN)C(N)=O [[Dmt^1]DALDA, 2′,6′-dimethyl-Tyr-D-Arg-Phe-Lys-NH2]
blood pressure ([5]; constant rate intravenous infusion 0.06-0.6 mg/kg/h for as long as 4 h): no significant change in blood pressure | blood pressure ([5]; intravenous bolus 0.003-0.009 mg/kg, awake sheep): transient increase in blood pressure | potency relative to DALDA in increasing blood pressure ([5]; sheep, unpublished data): 100 fold | inhibition of [3H]NE uptake ([1]; at a dose of 10^−4): 80.6±1.5% | IC50 [1]: 4.1 µM | effect on 5-HT uptake [3]: Neither DALDA nor [Dmt^1]DALDA had any effect | Ejection fraction ([4]; After ligation): 31.4 ± 5.6% | Fractional shortening ([4]; After ligation): 27.1 ± 4.0% | Systolic wall thickening ([4]; After ligation): 7.6 ± 4.7% | Ejection fraction ([4]; Baseline): 64 ± 9.2% | Fractional shortening ([4]; Baseline): 47.8 ± 4.2% | Systolic wall thickening ([4]; Baseline): 47.0 ± 6.1% | Ejection fraction ([4]; Five min. after reperfusion): 48.9 ± 10.1% | Fractional shortening ([4]; Five min. after reperfusion): 45.7±2.4% | Systolic wall thickening ([4]; Five min. after reperfusion): 48.3±7.6% | Fractional shortening ([4]; Ten min. after reperfusion): 44.0±3.8% | Systolic wall thickening ([4]; Ten min. after reperfusion): 50.5±8.4% | effect on contractility during preischemic or postischemic periods ([4]; review of continuous echocardiogram): no effects of [Dmt^1]DALDA on the contractility
